Read-outs that look alike come from different tables or passages of the source.
Tests used:
KOR (κ opioid receptor) = biological target: T1, KOR (κ opioid receptor) (Homo sapiens, UniProt P41145); assay: KOR radioligand binding ([3H]-U69593, HEK293 cell homogenates); details: for inhibition at 10 µM: Percent inhibition at 10,000 nM
T1 construct: expressed in transfected cells; host or cells: HEK293 (stably transfected)

RAW macrophages = assay: NO production (Griess assay), LPS/IFNγ-activated RAW264.7 macrophages; assay type: cell-based, mouse; details: Mus musculus, Macrophage, 24 h
HEK293 = assay: Viability assay (CellTiter-Glo), HEK293; assay type: cell-based, human; details: for Cell viability (%) HEK293 120 μM: CellTiter-Glo; for toxicity at 120 μM (in words): HEK293, 120 μM
HEPG2 = assay: Viability assay (CellTiter-Glo), HEPG2; assay type: cell-based, human; details: for Cell viability (%) HEPG2 120 μM: CellTiter-Glo; for toxicity at 120 μM (in words): HepG2, 120 μM
Swiss Webster mice = assay: Rotarod test; details: for sensorimotor deficits on the rotarod: p.o. at 4-fold the effective dose in the formalin test
σ2 receptor = biological target: T2, σ2 receptor (Homo sapiens, UniProt Q5BJF2); assay: σ2 receptor binding (3H-ditolylguanidine, HEK cell lysate)
T2 construct: expressed in transfected cells; host or cells: HEK cells (stably transfected)
Experimental: (§1) Psychoactive Drug Screening Program. Detailed protocols for the primary and secondary radioligand binding assays can be found in the National Institute of Mental Health's Psychoactive Drug Screening Program (NIMH PDSP) Assay Protocol Book. Briefly, primary and secondary radioligand binding assays are carried out in a final of volume of 125 μL per well in appropriate binding buffer. The radioactive ligand concentration is close to the Kd. Total binding and nonspecific binding are determined in the absence and presence of 10 μM of appropriate reference compound, respectively. In brief, plates are usually incubated at room temperature and in the dark for 90 min. Reactions are stopped by vacuum filtration onto 0.3% polyethyleneimine (PEI) soaked 96-well filter mats using a 96-well Filtermate harvester, followed by three washes with cold PBS buffer. Scintillation cocktail is then melted onto the microwave-dried filters on a hot plate and radioactivity counted in a Microbeta counter. The data (n=6) were analyzed by nonlinear regression.

5-HT7 = 5-HT7 (Homo sapiens, UniProt P34969); assay: PDSP primary binding 5-HT7; details: PDSP primary screening
Experimental: (§2) Because reduction of NO could not be reversed by GABAAR antagonists, the possible binding of MP-IV-010 to other cellular receptors was evaluated in collaboration with the NIMH Psychoactive Drug Screening Program.
as §1

D3 = D3 (Homo sapiens, UniProt P35462); assay: PDSP primary binding D3; details: PDSP primary screening
Experimental: as §2, §1

H2 = H2 (Homo sapiens, UniProt P25021); assay: PDSP primary binding H2; details: PDSP primary screening
Experimental: as §2, §1

Beta2 = Beta2 (Homo sapiens, UniProt P07550); assay: PDSP primary binding Beta2; details: PDSP primary screening
Experimental: as §2, §1

M3 = M3 (Homo sapiens, UniProt P20309); assay: PDSP primary binding M3; details: PDSP primary screening
Experimental: as §2, §1

HERG = HERG (Homo sapiens, UniProt Q12809); assay: PDSP primary HERG binding; details: PDSP primary screening
Experimental: as §2, §1

[1] = concentration-dependent, [3H]-U69593, read-out: KOR (Ki)

SMILES | inhibition at 10 µM (KOR (κ opioid receptor); [3H]-U69593) | inhibition at 10 µM (RAW macrophages) | Cell viability (%) HEK293 120 μM (HEK293) | Cell viability (%) HEPG2 120 μM (HEPG2) | Ki (KOR (κ opioid receptor)) | inhibition at 50 µM (RAW macrophages) | other results
CCOC(=O)c1ncn2c1[C@@H](C)N=C(c1ccccn1)c1cc(Br)ccc1-2 [GL-II-06] | 79% | 4 ± 2% | 83 ± 13% | 89 ± 5% |  |  | Ki (KOR (κ opioid receptor); [1]): 0.401 µM
C[C@H]1N=C(c2ccccn2)c2cc(Br)ccc2-n2cnc(C(=O)O)c21 [GL-II-51] | 11% | 0% | 91 ± 4% | 100 ± 16% |  |  | 
C[C@H]1N=C(c2ccccc2F)c2cc(Br)ccc2-n2cnc(-c3cnco3)c21 [GL-III-36] | 88% | 0% | 80 ± 9% | 100 ± 9% | 0.246 µM | 58 ± 9% | 
CCOC(=O)c1ncn2c1[C@@H](C)N=C(c1ccccc1F)c1cc(C3CC3)ccc1-2 [GL-III-42] | 86% | 0% | 62 ± 11% | 100 ± 8% | 0.174 µM |  | 
C[C@H]1N=C(c2ccccc2F)c2cc(Cl)ccc2-n2cnc(C(=O)O)c21 [GL-III-54] | 22% | 6 ± 4% | 96 ± 12% | 93 ± 4% |  |  | 
Cc1noc(-c2ncn3c2[C@@H](C)N=C(c2ccccc2F)c2cc(Br)ccc2-3)n1 [GL-III-60, (R)-5-(8-Bromo-6-(2-fluorophenyl)-4-methyl-4H-benzo[f]imidazo[1,5-a][1,4]diazepin-3-yl)-3-methyl-1,2,4-oxadiazole] | 87% | 0% | 64 ± 6% | 100 ± 11% | 0.232 µM | 39 ± 8% | 
Cc1noc(-c2ncn3c2[C@@H](C)N=C(c2ccccc2F)c2cc(C4CC4)ccc2-3)n1 [GL-III-63, (R)-5-(8-Cyclopropyl-6-(2-fluorophenyl)-4-methyl-4H-benzo[f]imidazo[1,5-a][1,4]diazepin-3-yl)-3-methyl-1,2,4-oxadiazole] | 78% | 13 ± 4% | 18 ± 4% | 16 ± 6% | 0.678 µM | 62 ± 12% | toxicity at 120 μM (in words) (HEK293): toxic; toxicity at 120 μM (in words) (HEPG2): toxic
C#Cc1ccc2c(c1)C(c1ccccc1F)=N[C@H](C)c1c(C(=O)NC(C)C)ncn1-2 [GL-III-66] | 63% | 6 ± 4% | 46 ± 4% | 86 ± 8% |  |  | Ki (KOR (κ opioid receptor); [1]): 0.233 µM
CCNC(=O)c1ncn2c1[C@@H](C)N=C(c1ccccc1F)c1cc(C3CC3)ccc1-2 [GL-III-68] | 88% | 5 ± 1% | 56 ± 11% | 83 ± 2% |  |  | 
C[C@H]1N=C(c2ccccc2F)c2cc(Br)ccc2-n2cnc(C(=O)N(C)C)c21 [GL-III-69] | 75% | 0% | 73 ± 10% | 88 ± 5% |  |  | Ki (KOR (κ opioid receptor); [1]): 0.511 µM
C[C@H]1N=C(c2ccccc2F)c2cc(C3CC3)ccc2-n2cnc(C(=O)N(C)C)c21 [GL-III-70] | 68% | 2 ± 2% | 86 ± 12% | 100 ± 5% |  |  | Ki (KOR (κ opioid receptor); [1]): 0.8 µM
C#Cc1ccc2c(c1)C(c1ccccc1F)=N[C@H](C)c1c(-c3cnco3)ncn1-2 [GL-III-73] | 74% | 1 ± 6% | 86 ± 6% | 100 ± 9% | 0.449 µM |  | 
C[C@@H]1N=C(c2ccccc2F)c2cc(Br)ccc2-n2cnc(-c3cnco3)c21 [GL-III-76] | 83% | 0% | 59 ± 4% | 90 ± 6% | 0.221 µM |  | 
C#Cc1ccc2c(c1)C(c1ccccc1F)=N[C@@H](C)c1c(-c3cnco3)ncn1-2 [GL-III-78] | 74% | 0% | 56 ± 8% | 100 ± 15% | 0.451 µM |  | 
CCc1noc(-c2ncn3c2[C@@H](C)N=C(c2ccccc2F)c2cc(C4CC4)ccc2-3)n1 [GL-IV-03, (R)-5-(8-Cyclopropyl-6-(2-fluorophenyl)-4-methyl-4H-benzo[f]imidazo[1,5-a][1,4]diazepin-3-yl)-3-ethyl-1,2,4-oxadiazole] | 91% | 75% | 47 ± 5% | 39 ± 5% | 0.232 µM |  | toxicity at 120 μM (in words) (HEK293): some cytotoxicity; toxicity at 120 μM (in words) (HEPG2): to a lesser degree; ability of mice to balance on a rotating rod for three minutes (Swiss Webster mice; intraperitoneal, 10 and 40 mg/kg): did not influence the ability of mice to balance; sensorimotor deficits on the rotarod (Swiss Webster mice): did not cause any sensorimotor deficits
C#Cc1ccc2c(c1)C(c1ccccc1F)=N[C@H](C)c1c(C(=O)NC)ncn1-2 [MP-III-022] | 80% | 9 ± 5% | 75 ± 13% | 94 ± 7% |  | 51 ± 7% | Ki (KOR (κ opioid receptor); [1]): 0.381 µM
C#Cc1ccc2c(c1)C(c1ccccc1F)=N[C@H](C)c1c(-c3nc(C)no3)ncn1-2 [MP-IV-004] | 86% | 0% | 40 ± 8% | 100 ± 4% | 0.444 µM | 51 ± 7% | 
C#Cc1ccc2c(c1)C(c1ccccc1F)=N[C@H](C)c1c(-c3nc(C(C)C)no3)ncn1-2 [MP-IV-010, (R)-5-(8-ethynyl-6-(2-fluorophenyl)-4-methyl-4H-benzo[f]imidazo[1,5-a][1,4]diazepin-3-yl)-3-isopropyl-1,2,4-oxadiazole] | 94% | 10 ± 2% | 41 ± 4% | 45 ± 7% | 0.145 µM | 63 ± 11% | IC50 (KOR (κ opioid receptor)): 0.351 µM; Percent Competition KOR (KOR (κ opioid receptor); PDSP primary screening): 94%; toxicity at 120 μM (in words) (HEK293): some cytotoxicity; toxicity at 120 μM (in words) (HEPG2): to a lesser degree; IC50 (σ2 receptor): 5.2 µM; Percent Competition Sigma 2 (σ2 receptor; PDSP primary screening): 64%; Percent Competition 5-HT7 (5-HT7): −5%; Percent Competition D3 (D3): 15%; Percent Competition H2 (H2): 28%; Percent Competition Beta2 (Beta2): 20%; Percent Competition M3 (M3): 0%; Percent Competition HERG binding (HERG): 29%; sensorimotor deficits on the rotarod (Swiss Webster mice): did not cause any sensorimotor deficits

Source: US20240279232A1, “USE OF SUBSTITUTED 5-(4-METHYL-6-PHENYL-4H-BENZO[F]IMIDAZO[1,5-A][1,4] DIAZEPIN-3-YL)-1,2,4-O[…] THE TREATMENT OF INFLAMMATORY CONDITIONS” (priority 2021, published 2024)
